Laboratory results as given in patent US10266549B2, “ULK1 inhibitors and methods using same” (SALK INSTITUTE FOR BIOLOGICAL STUDIES, priority 2014, dated 2019).

Biological target: ULK1 (Homo sapiens (Human), UniProt O75385)
Test: ULK1 inhibition assay (Table 1)
Type: biochemical
Details: * = tested as a mixture of regioisomers

Chain of ULK1 (O75385 whole entry, species assumed): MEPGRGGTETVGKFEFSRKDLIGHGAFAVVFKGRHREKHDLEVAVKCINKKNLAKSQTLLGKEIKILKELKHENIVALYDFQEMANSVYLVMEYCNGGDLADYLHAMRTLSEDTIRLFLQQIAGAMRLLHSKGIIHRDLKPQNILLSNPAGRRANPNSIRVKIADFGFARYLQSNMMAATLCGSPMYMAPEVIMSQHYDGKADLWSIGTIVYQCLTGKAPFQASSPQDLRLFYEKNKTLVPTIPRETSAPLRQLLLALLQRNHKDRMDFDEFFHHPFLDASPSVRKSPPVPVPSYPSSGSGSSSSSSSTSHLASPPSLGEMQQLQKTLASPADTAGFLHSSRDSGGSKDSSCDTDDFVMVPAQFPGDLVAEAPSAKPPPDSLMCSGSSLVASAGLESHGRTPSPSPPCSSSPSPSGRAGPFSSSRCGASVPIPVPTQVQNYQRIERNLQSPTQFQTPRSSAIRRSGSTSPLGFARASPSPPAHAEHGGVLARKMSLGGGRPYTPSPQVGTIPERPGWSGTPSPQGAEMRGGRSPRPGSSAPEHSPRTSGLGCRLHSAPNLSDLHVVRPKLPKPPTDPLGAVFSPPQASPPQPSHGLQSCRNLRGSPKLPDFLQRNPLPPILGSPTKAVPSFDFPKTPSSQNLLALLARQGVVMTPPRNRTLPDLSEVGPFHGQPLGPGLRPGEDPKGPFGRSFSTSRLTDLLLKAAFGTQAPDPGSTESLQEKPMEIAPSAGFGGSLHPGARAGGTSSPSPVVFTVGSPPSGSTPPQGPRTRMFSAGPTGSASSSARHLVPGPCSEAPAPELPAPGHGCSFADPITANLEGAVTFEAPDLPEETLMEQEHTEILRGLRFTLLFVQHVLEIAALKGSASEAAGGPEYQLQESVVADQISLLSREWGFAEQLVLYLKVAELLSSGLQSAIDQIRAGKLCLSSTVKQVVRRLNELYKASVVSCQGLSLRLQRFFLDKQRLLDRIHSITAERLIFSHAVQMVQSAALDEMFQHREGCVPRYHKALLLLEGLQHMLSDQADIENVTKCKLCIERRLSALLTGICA

Structure (SMILES)	IC50 [nM]
FC(F)(F)c1cnc(Nc2ccc3c(c2)OCO3)nc1NCC1CC1 [167b, N^2-(benzo[d][1,3]dioxol-5-yl)-N^4-(cyclopropylmethyl)-5-(trifluoromethyl)pyrimidine-2,4-diamine]	< 200
FC(F)(F)c1cnc(NC2CCC2)nc1Nc1ccc2c(c1)OCO2 [168a, N^4-(benzo[d][1,3]dioxol-5-yl)-N^2-cyclobutyl-5-(trifluoromethyl)pyrimidine-2,4-diamine]	< 200
FC(F)(F)c1cnc(Nc2ccc3c(c2)OCO3)nc1NC1CCC1 [168b, N^2-(benzo[d][1,3]dioxol-5-yl)-N^4-cyclobutyl-5-(trifluoromethyl)pyrimidine-2,4-diamine]	200 to 2000
FC(F)(F)c1cnc(NC2CCC2)nc1NC1CCC1 [168c, N^2,N^4-dicyclobutyl-5-(trifluoromethyl) pyrimidine-2,4-diamine]	200 to 2000
COc1cc(Nc2ncc(Br)c(N(C)C(=O)c3ccccc3O)n2)cc(OC)c1OC [171b, N-(5-bromo-2-((3,4,5-trimethoxyphenyl)amino)pyrimidin-4-yl)-2-hydroxy-N-methylbenzamide]	< 200
O=C1CCc2cc(Nc3ncc(C(F)(F)F)c(Nc4ccc5c(c4)OC(F)(F)O5)n3)ccc2N1 [178a, 6-((4-((2,2-difluorobenzo[d][1,3]dioxol-5-yl)amino)-5-(trifluoromethyl)pyrimidin-2-yl)amino)-3,4-dihydroquinolin-2(1H)-one]	< 200
O=C1CCc2cc(Nc3nc(Nc4ccc5c(c4)OC(F)(F)O5)ncc3C(F)(F)F)ccc2N1 [178b, 6-((2-((2,2-difluorobenzo[d][1,3]dioxol-5-yl)amino)-5-(trifluoromethyl)pyrimidin-4-yl)amino)-3,4-dihydroquinolin-2(1H)-one]	< 200
O=C1CCc2cc(Nc3ncc(C(F)(F)F)c(OC4Cc5ccccc5C4)n3)ccc2N1 [180a, 6-((4-((2,3-dihydro-1H-inden-2-yl)oxy)-5-(trifluoromethyl)pyrimidin-2-yl)amino)-3,4-dihydroquinolin-2(1H)-one]	< 200
O=C1CCc2cc(Nc3nc(OC4Cc5ccccc5C4)ncc3C(F)(F)F)ccc2N1 [180b, 6-((2-((2,3-dihydro-1H-inden-2-yl)oxy)-5-(trifluoromethyl)pyrimidin-4-yl)amino)-3,4-dihydroquinolin-2(1H)-one]	> 2000
FC(F)(F)c1cnc(Nc2cnc3[nH]ccc3c2)nc1Nc1ccccc1 [181a, N4-phenyl-N2-(1H-pyrrolo[2,3-b]pyridin-5-yl)-5-(trifluoromethyl)pyrimidine-2,4-diamine]	< 200
Nc1ncc(C(F)(F)F)c(Nc2cnc3[nH]ccc3c2)n1 [181b, N4-(1H-pyrrolo[2,3-b]pyridin-5-yl)-5-(trifluoromethyl)pyrimidine-2,4-diamine]	200 to 2000
CNc1nc(Nc2cnc3[nH]ccc3c2)ncc1C(F)(F)F [182a, N4-methyl-N2-(1H-pyrrolo[2,3-b]pyridin-5-yl)-5-(trifluoromethyl)pyrimidine-2,4-diamine]	< 200
CNc1ncc(C(F)(F)F)c(Nc2cnc3[nH]ccc3c2)n1 [182b, N2-methyl-N4-(1H-pyrrolo[2,3-b]pyridin-5-yl)-5-(trifluoromethyl)pyrimidine-2,4-diamine]	200 to 2000
COc1cc(Nc2nc(-n3nnc4ccccc43)ncc2Br)cc(O)c1OC [Example 331b]	200 to 2000
CNC(=O)c1ccccc1Nc1nc(Nc2ccc(N3CCOCC3)cc2OC)ncc1Cl [compound 12, 2-(5-Chloro-2-(2-methoxy-4-morpholinophenylamino)pyrimidin-4-ylamino)-N-methylbenzamide]	< 200
CNC(=O)c1ccccc1Nc1nc(Nc2ccc(N3CCOCC3)cc2OC)ncc1Br [compound 13, 2-(5-Bromo-2-(2-methoxy-4-morpholinophenylamino)pyrimidin-4-ylamino)-N-methylbenzamide]	200 to 2000
CNC(=O)c1ccccc1Nc1nc(Nc2cc(OC)c(OC)c(OC)c2)ncc1Cl [compound 15, 2-(5-Chloro-2-(3,4,5-trimethoxyphenylamino)pyrimidin-4-ylamino)-N-methylbenzamide]	< 200
CNC(=O)c1ccccc1Nc1nc(Nc2cc(OC)ccc2C)ncc1Cl [compound 16, 2-(5-Chloro-2-(5-methoxy-2-methylphenylamino)pyrimidin-4-ylamino)-N-methylbenzamide]	< 200
CNC(=O)c1ccccc1Nc1nc(Nc2cc(OC)ccc2C)ncc1Br [compound 17, 2-(5-Bromo-2-(5-methoxy-2-methylphenylamino)pyrimidin-4-ylamino)-N-methylbenzamide]	< 200
CNC(=O)c1ccccc1Nc1nc(Nc2ccc3[nH]ccc3c2)ncc1Cl [compound 18, 2-(2-(1H-indol-5-ylamino)-5-chloropyrimidin-4-ylamino)-N-methylbenzamide]	200 to 2000
CNC(=O)c1ccccc1Nc1nc(Nc2ccc3c(c2)CCC(=O)N3)ncc1Cl [compound 19, 2-(5-Chloro-2-(2-oxo-1,2,3,4-tetrahydroquinolin-6-ylamino)pyrimidin-4-ylamino)-N-methylbenzamide]	< 200

Structure (SMILES)	IC50 [nM]
CNC(=O)c1ccccc1Nc1nc(Nc2ccc3c(c2)CCC(=O)N3)ncc1Br [compound 20, 2-((5-Bromo-2-((2-oxo-1,2,3,4-tetrahydroquinolin-6-yl)amino)pyrimidin-4-yl)amino)-N-methylbenzamide]	< 200
CNC(=O)c1ccccc1Nc1nc(Nc2ccc3c(c2)CC(=O)N3)ncc1Cl [compound 21, 2-(5-Chloro-2-(2-oxoindolin-5-ylamino)pyrimidin-4-ylamino)-N-methylbenzamide]	< 200
COc1cc(Nc2ncc(Br)c(Nc3ccccn3)n2)cc(OC)c1OC [compound 22, Bromo-N^4-(pyridin-2-yl)-N^2-(3,4,5-trimethoxyphenyl) pyrimidine-2,4-diamine]	< 200
CNC(=O)c1ccccc1Nc1nc(Nc2ccc3[nH]ccc3c2)ncc1Br [compound 23, 2-(2-(1H-indol-5-ylamino)-5-bromopyrimidin-4-ylamino)-N-methylbenzamide]	< 200
COc1ccc(Nc2nc(Nc3cc(OC)c(OC)c(OC)c3)ncc2Cl)cn1 [compound 24, 5-Chloro-N^4-(6-methoxypyridin-3-yl)-N^2-(3,4,5-trimethoxyphenyl)pyrimidine-2,4-diamine]	< 200
COc1ccc(Nc2nc(Nc3cc(OC)c(OC)c(OC)c3)ncc2Br)cn1 [compound 25, 5-Bromohloro-N^4-(6-methoxypyridin-3-yl)-N^2-(3,4,5-trimethoxyphenyl)pyrimidine-2,4-diamine]	< 200
COc1ccc(C)c(Nc2ncc(Br)c(Nc3ccccn3)n2)c1 [compound 26, 5-Bromo-N^2-(5-methoxy-2-methylphenyl)-N^4-(pyridin-2-yl) pyrimidine-2,4-diamine]	200 to 2000
COc1ccc(Nc2nc(Nc3ccc(N4CCOCC4)cc3OC)ncc2Cl)cn1 [compound 27, 5-Chloro-N^2-(2-methoxy-4-morpholinophenyl)-N^4-(6-methoxypyridin-3-yl)pyrimidine-2,4-diamine]	> 2000
COc1ccc(Nc2nc(Nc3ccc(N4CCOCC4)cc3OC)ncc2Br)cn1 [compound 28, 5-Bromo-N^2-(2-methoxy-4-morpholinophenyl)-N^4-(6-methoxypyridin-3-yl)pyrimidine-2,4-diamine]	200 to 2000
COc1ccc(Nc2nc(Nc3ccc4[nH]ccc4c3)ncc2Cl)cn1 [compound 29, 5-Chloro-N^2-(1H-indol-5-yl)-N^4-(6-methoxypyridin-3-yl) pyrimidine-2,4-diamine]	200 to 2000
COc1ccc(Nc2nc(Nc3ccc4[nH]ccc4c3)ncc2Br)cn1 [compound 30, 5-Bromo-N^2-(1H-indol-5-yl)-N^4-(6-methoxypyridin-3-yl) pyrimidine-2,4-diamine]	< 200
COc1cc(Nc2ncc(C(F)(F)F)c(NCc3cccc(S(C)(=O)=O)c3)n2)cc(OC)c1OC [compound 31, N^4-(3-(Methylsulfonyl)benzyl)-5-(trifluoromethyl)-N^2-(3,4,5-trimethoxyphenyl)pyrimidine-2,4-diamine]	< 200
CS(=O)(=O)c1cccc(CNc2nc(Nc3ccc4c(c3)CCC(=O)N4)ncc2C(F)(F)F)c1 [compound 32, 6-(4-(3-(Methylsulfonyl)benzylamino)-5-(trifluoromethyl)pyrimidin-2-ylamino)-3,4-dihydroquinolin-2(1H)-one]	200 to 2000
CS(=O)(=O)c1cccc(CNc2nc(Nc3ccc4c(c3)CC(=O)N4)ncc2C(F)(F)F)c1 [compound 33, 5-((4-((3-(Methylsulfonyl)benzyl)amino)-5-(trifluoromethyl)pyrimidin-2-yl)amino)indolin-2-one]	200 to 2000
COc1ccc(C)c(Nc2ncc(Cl)c(Nc3ccc(OC)nc3)n2)c1 [compound 34, 5-Chloro-N^2-(5-methoxy-2-methylphenyl)-N^4-(6-methoxypyridin-3-yl)pyrimidine-2,4-diamine]	> 2000
CNC(=O)c1ccccc1Nc1nc(Nc2cc(OC)c(OC)c(OC)c2)ncc1C(F)(F)F [compound 36, N-Methyl-2-(5-(trifluoromethyl)-2-(3,4,5-trimethoxyphenylamino)pyrimidin-4-ylamino)benzamide]	> 2000
COc1ccc(Nc2nc(Nc3cc(OC)c(OC)c(OC)c3)ncc2C(F)(F)F)cn1 [compound 37, N^4-(6-Methoxypyridin-3-yl)-5-(trifluoromethyl)-N^2-(3,4,5-trimethoxyphenyl)pyrimidine-2,4-diamine]	< 200
COc1cc(Nc2ncc(C(F)(F)F)c(Nc3ccccn3)n2)cc(OC)c1OC [compound 38, N^4-(Pyridin-2-yl)-5-(trifluoromethyl)-N^2-(3,4,5-trimethoxyphenyl)pyrimidine-2,4-diamine]	200 to 2000
CNC(=O)c1ccccc1Nc1nc(Nc2ccc(N3CCOCC3)cc2OC)ncc1C(F)(F)F [compound 39, 2-(2-(2-Methoxy-4-morpholinophenylamino)-5-(trifluoromethyl)pyrimidin-4-ylamino)-N-methylbenzamide]	< 200
COc1ccc(Nc2nc(Nc3ccc(N4CCOCC4)cc3OC)ncc2C(F)(F)F)cn1 [compound 40, N^2-(2-methoxy-4-morpholinophenyl)-N^4-(6-methoxypyridin-3-yl)-5-(trifluoromethyl)pyrimidine-2,4-diamine]	> 2000
